From patent US20250282761A1, “SALT AND CRYSTAL FORMS OF AN EPIDERMAL GROWTH FACTOR RECEPTOR INHIBITOR” (Blueprint Medicines Corporation, priority 2022, published 2025) come the findings set out here.

A short description of the series: Pharmacokinetics following oral (PO) administration to male beagle dogs. The conditions noted are these: single 30 mg/kg PO (free base equivalent). Format: in vivo. How it is done: Male beagle dogs (3 in each treatment group) were administered orally 30 mg/kg of Compound (I) free base or mesylate salt of Compound (I) in a dose equivalent to 30 mg/kg of free base. The free base and the mesylate salt were suspended/dissolved in an appropriate volume of vehicle solution containing 0.5% hydroxypropyl methylcellulose (w/v) with 0.2% Tween 80 (v/v) in deionized water. The PO doses were administered into the stomach via syringe and gavage tube followed by a 5 mL water flush. Dose volumes were adjusted for the weight of the animal on the morning of dose administration. Blood samples were collected at 0, 0.5, 1, 2, 4, 6, 8, 10, 12, and 24 h postdose from an accessible vein with preference to the jugular vein. Blood samples were kept on ice until processing. All blood samples were centrifuged within 1 h of collection at 3200 RPM for 10 min at 5° C. Plasma samples were directly transferred into cluster tubes and stored at −20°±5° C. until shipment. […] Animals were fasted on the evening prior to dosing with food returned at 4 h postdose.

Structures can show the parent of a compound that is named as a salt.

Turning to `C=CC(=O)Nc1ccc(F)c(Nc2nc(Nc3cnn(C)c3)ncc2-c2ccc(C(F)(F)F)cc2)c1` [Compound (I) free base, N-(4-fluoro-3-((2-((1-methyl-1H-pyrazol-4-yl)amino)-5-(4-(trifluoromethyl)phenyl)pyrimidin-4-yl)amino)phenyl)acrylamide], the “appearance of animals at dose administration and blood collection time points” value is recorded as “appeared normal”.
Turning to `C=CC(=O)Nc1ccc(F)c(Nc2nc(Nc3cnn(C)c3)ncc2-c2ccc(C(F)(F)F)cc2)c1` [mesylate salt of Compound (I)], the “in vivo exposure (plasma concentration, FIG. 7)” value (0-24 h) is “higher in vivo exposure”.
